Values quoted from earlier work as cited in US20250283018A1, “TOILET RIM BLOCKS WITH SCENT CHANGE” (SYMRISE AG, priority 2021, published 2025).
Where two headings read alike, the source gives them in different places.

What was measured:
[1] = not given; remark: listed apart in the source
[2] = Table 3, components of POWER PLATIN

Row | Molecule | Bp. [° C.] [1, 2] | logP (list of selected fragrances) | Bp. [° C.] ([1]; list of selected fragrances) | logP (Table 1, components of MARINA) | Bp. [° C.] ([1]; Table 1, components of MARINA) | other results
1 | c1ccc2[nH]ccc2c1 [INDOL FF] | 254 °C | – | – | – | – | logP (Table 2, components of PEACH): 2.05; logP [2]: 2.05; Bp. [° C.] ([1]; Table 2, components of PEACH): 254 °C
2 | CC(=O)OCCC(C)C [ISOAMYLACETAT] | – | – | – | – | – | logP (Table 2, components of PEACH): 2.26; Bp. [° C.] ([1]; Table 2, components of PEACH): 143 °C
3 | CCCC(=O)OCCC(C)C [ISOAMYLBUTYRAT] | – | – | – | – | – | logP (Table 2, components of PEACH): 3.25; Bp. [° C.] ([1]; Table 2, components of PEACH): 179 °C
4 | CCC(C)=CCCC(C)=CC#N [LEMONILE] | 249 °C | – | – | – | – | logP [2]: 3.96
5 | C=CC(C)(O)CCC=C(C)C (centres unmarked) [LINALOOL] | 198 °C | – | – | – | – | logP [2]: 3.38
6 | Cc1ccc2c(c1)OCC(=O)CO2 [METHYLBENZODIOXEPINON] | – | 1.8 | 289 °C | – | – | –
7 | CCCCCCCCCCCCCCCCCC=O [OCTADECANAL] | – | 1.83 | 250 °C | – | – | –
8 | O=C1CCCCCCCCCCCCCCO1 [OMEGA PENTADECALACTONE] | – | 5.35 | 341 °C | – | – | –
9 | CCCCCCCCCCC=CC#N [OZONIL] | – | – | – | 5.04 | 293 °C | –
10 | CC1(C)C2CC=C(CCC=O)C1C2 (centres unmarked) [PINOACETALDEHYD] | – | – | – | 3.76 | 242 °C | –
11 | CC(C)=CCCC1=CCC(C)(C=O)CC1 (centres unmarked) [PRECYCLEMONE B] | 267 °C | – | – | 5.19 | 267 °C | logP [2]: 5.19
12 | COC1CC2CC1C1CC(C=O)CC21 (centres unmarked) [SCENTENAL] | – | – | – | 2.03 | 273 °C | –
13 | CC1=CCC(=C(C)C)CC1 [TERPINOLEN DEXTRO] | 197 °C | – | – | – | – | logP [2]: 4.88
14 | CCCCCCCCCCCCCC=O [TETRADECANAL] | – | 2.89 | 286 °C | – | – | –
15 | CC(C)CCCC(C)CCO (centres unmarked) [TETRAHYDROGERANIOL] | 212 °C | – | – | 3.64 | 212 °C | logP [2]: 3.64
16 | CC1CCC(C(C)(C)S)C(=O)C1 (centres unmarked) [THIOMENTHANON-8,3] | – | – | – | – | – | logP (Table 2, components of PEACH): 2.78; Bp. [° C.] ([1]; Table 2, components of PEACH): 271 °C
17 | CCCCCCCCCC(C)=O [UNDECANON-2] | 231.5 °C | – | – | – | – | logP [2]: 3.69
18 | CC/C=C(\C)C(O)CCCCC (centres unmarked) [UNDECAVERTOL] | – | – | – | 4.05 | 235 °C | –
19 | CCCCCC1(C)CCC(C)(C)C1=O (centres unmarked) [VELOUTONE] | – | – | – | – | – | logP (Table 2, components of PEACH): 4.34; Bp. [° C.] ([1]; Table 2, components of PEACH): 247 °C
20 | CC(=O)OC1CC2CC1C1CC=CC21 (centres unmarked) [VERDYL ACETATE] | – | 2.36 | 260 °C | – | – | –
21 | COC(=O)c1ccccc1N [[…]] | 256 °C | 2.12 | 256 °C | – | 256 °C | –
22 | CARYOPHYLLENACETAT | – | 5.52 | 306 °C | 5.75 | 306 °C | logP (Table 2, components of PEACH): 5.75; Bp. [° C.] ([1]; Table 2, components of PEACH): 306 °C
23 | HERBYLPROPIONAT | – | 2.89 | 276.15 °C | 3.68 | 276.15 °C | –
24 | ISOBUTYLMENTHONE | – | – | – | 2.94 | 211 °C | –
25 | MENTHON L/ISOMENTHON D | – | – | – | 2.87 | 204 °C | –
26 | NEROL 900 | 228 °C | – | – | – | – | logP [2]: 3.47
27 | SPIRO[1,3-DIOXOLANE-2,5′-(4′,4′,8′,8′-TETRAMETHYL-HEXAHYDRO-3′,9′-MENTHANONAPHTHALENE)] | – | 5.16 | 280 °C | – | – | –
